Molecular target: T1, Thioredoxin (Homo sapiens, UniProt P10599)
T1 sequence (P10599 whole entry): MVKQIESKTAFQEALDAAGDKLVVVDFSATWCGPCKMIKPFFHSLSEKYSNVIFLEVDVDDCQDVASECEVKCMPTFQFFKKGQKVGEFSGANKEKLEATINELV
Test: In vitro Assay
Conditions: pH 7.6
Procedure: The method of determining thioredoxin activity is based on the reduction of insulin by thioredoxin. Thioredoxin is reconstituted is by thioredoxin reductase, with NADPH. The resulting free thiol -SH groups react with 5,5′-dithiobis-2-nitrobenzoic acid (DTNB). The termination of the reaction results in the formation of a […]. […] The reaction was performed at 37° C. over 30 min. in a buffer containing 50 mM Tris-HCl and 20 mM EDTA at a pH of 7.6.

- IC50: 8.6 µM
SMILES: C=C(COC(=O)c1c(C(F)(F)F)cccc1C(F)(F)F)C(=O)NCc1ccccc1 [US9018255, 8a]
